Measured values: publication PMC8881610 (Nature Communications, 2022)
Changes are numbered by the printed parent chain.

What was measured:
Experiment in all cases: cAMP accumulation assay (LANCE Ultra cAMP kit), GIPR WT, mutant or modified constructs
Format in all cases: cell-based
Design in all cases: acylated tirzepatide to the full-length or modified; Flag; expressed in transfected cells; host or cells: HEK293T
[1] = target: T1, GIPR (Homo sapiens, UniProt P48546, D191A); conditions: HEK-293T, GIPR D191A; HEK293T
T1 sequence (P48546 22-466 D191A): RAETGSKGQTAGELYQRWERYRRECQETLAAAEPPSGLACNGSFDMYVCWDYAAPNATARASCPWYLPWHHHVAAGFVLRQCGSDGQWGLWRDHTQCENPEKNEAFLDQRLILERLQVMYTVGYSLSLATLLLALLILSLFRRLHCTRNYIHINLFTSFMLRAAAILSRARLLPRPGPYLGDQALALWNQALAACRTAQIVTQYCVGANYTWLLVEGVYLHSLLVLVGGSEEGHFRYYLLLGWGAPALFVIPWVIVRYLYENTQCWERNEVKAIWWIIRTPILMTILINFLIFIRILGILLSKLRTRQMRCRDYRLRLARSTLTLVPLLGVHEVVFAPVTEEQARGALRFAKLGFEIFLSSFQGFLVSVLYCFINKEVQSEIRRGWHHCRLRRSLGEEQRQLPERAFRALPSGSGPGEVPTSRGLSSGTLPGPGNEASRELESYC
Procedure, shortened: (§1)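 HEK293T cells transiently transfected with human GIPR WT or mutant constructs (pcDNA3.1), used after 24 h. The cells were stimulated with peptide agonists for 40 min at RT in HBSS with 5 mM HEPES, 0.1% BSA or casein, and 0.5 mM IBMX. cAMP was read by LANCE Ultra TR-FRET (Eu-cAMP tracer/ULight anti-cAMP, 1 h RT, 620/650 nm).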

[2] = target: T2, GIPR (Homo sapiens, UniProt P48546, F127A); conditions: GIPR F127A, HEK293T
T2 sequence (P48546 22-466 F127A): T1 sequence (P48546 22-466 D191A) with F106A, A170D
Procedure, shortened: as §1

[3] = target: T3, GIPR (Homo sapiens, UniProt P48546, Q30A); conditions: GIPR Q30A, HEK293T
T3 sequence (P48546 22-466 Q30A): T1 sequence (P48546 22-466 D191A) with Q9A, A170D
Procedure, shortened: as §1

[4] = read-out: cAMP pEC50 (converted)

## CCCCCCCCCCCCCCCC(=O)N[C@@H](CCC(=O)NCCCC[C@H](NC(=O)[C@H](CC(=O)O)NC(=O)[C@H](CO)NC(=O)[C@@H](NC(=O)[C@H](Cc1ccccc1)NC(=O)[C@@H](NC(=O)CNC(=O)[C@H](CCC(N)=O)NC(=O)C(C)(C)NC(=O)[C@@H](N)Cc1c[nH]cn1)[C@@H](C)O)[C@@H](C)O)C(=O)N[C@@H](CO)C(=O)N[C@@H](CCCCN)C(=O)N[C@@H](Cc1ccc(O)cc1)C(=O)N[C@@H](CC(C)C)C(=O)N[C@@H](CC(=O)O)C(=O)N[C@@H](CCC(=O)O)C(=O)N[C@@H](CCCNC(=N)N)C(=O)N[C@@H](C)C(=O)N[C@@H](C)C(=O)N[C@@H](CCC(N)=O)C(=O)N[C@@H](CC(=O)O)C(=O)N[C@@H](Cc1ccccc1)C(=O)N[C@H](C(=O)N[C@@H](CCC(N)=O)C(=O)N[C@@H](Cc1c[nH]c2ccccc12)C(=O)N[C@@H](CC(C)C)C(=O)N[C@@H](CC(C)C)C(=O)N[C@@H](CC(=O)O)C(=O)NCC(=O)NCC(=O)N1CCC[C@H]1C(=O)N[C@@H](CO)C(=O)N[C@@H](CO)C(=O)NCC(=O)N[C@@H](C)C(=O)N1CCC[C@H]1C(=O)N1CCC[C@H]1C(=O)N1CCC[C@H]1C(=O)N[C@@H](CO)C(N)=O)C(C)C)C(=O)O [Peptide 20]
[1]
  Emax: 51.7 ± 5.96%
[2]; [4]
  EC50: 4.57 pM
[2]; HEK-293T
  Emax: 100 ± 1.64%
[3]; [4]
  EC50: 42.7 pM
[3]; HEK-293T
  Emax: 100 ± 1.79%
